{
  "source": "paper PMC11769294",
  "about": "“(E)-1-(3-(3-Hydroxy-4-Methoxyphenyl)-1-(3,4,5-Trimethoxyphenyl)allyl)-1H-1,2,4-Triazole and Related Compounds: Their Synthesis and Biological Evaluation as Novel Antimitotic Agents Targeting Breast Cancer” (Pharmaceuticals, 2025)",
  "key": {"[1]": {"system": "purified bovine brain tubulin", "assay": "Tubulin polymerization assay", "format": "biochemical", "settings": "after 60 min", "description": "The triazole 22b was selected for evaluation in the tubulin polymerization assay. Following the protocol previously described, the polymerization of purified bovine tubulin was monitored using a tubulin polymerization assay kit, BK006, (Cytoskeleton Inc., Denver, CO, USA). The assay was carried out using the purified bovine brain tubulin. Tubulin polymerization was determined spectrophotometrically by monitoring the change in turbidity since light is scattered proportionally to the concentration of polymerized microtubules in the assay. Lyophilized tubulin [128] (Cytoskeleton, Denver, CO, USA) (>99%, 3 mg/mL) was re-suspended in ice-cold G-PEM buffer (80 mM PIPES pH 6.9, […], 1 mM EGTA, 1 mM GTP, 10.2% (v/v) glycerol) and added to wells on a half volume 96-well plate containing the designated concentration of drug (10 or 30 μM). […] Samples were mixed well and the tubulin assembly was monitored at 340 nm at 30 s intervals for 60 min at 37 °C in a Spectramax 340PC spectrophotometer (Molecular Devices, San Jose, CA, USA).\nFigure 13 Inhibition of tubulin polymerization in vitro by compound 22b. […] The progress of the tubulin polymerization reaction at 37 °C was monitored at 340 nm in a Spectramax 340PC spectrophotometer at 30 s intervals for 60 min. Fold inhibition of tubulin polymerization can be calculated from the Vmax value for each reaction. […]"}, "[2]": {"system": "MCF-7 breast cancer cells", "assay": "Annexin V/PI apoptotic assay", "format": "cell-based, human", "description": "(§1) Apoptotic cell death was monitored by flow cytometry using Annexin V and propidium iodide (PI) to determine the Annexin V and PI negative cells (Q4, healthy cells), Annexin V positive and PI negative cells (Q3, early apoptosis), Annexin V and PI positive cells (Q2, late apoptosis), and Annexin V negative and PI-positive cells (Q1, necrosis) cells. MCF-7 and MDA-MB-231 cells for this experiment were seeded in 6-well plates at a density of 1 × 10^5 cells/mL (3 mL). Following the protocol previously described, the cells were treated at 37 °C with either vehicle (0.1% (v/v) EtOH), phenstatin 19c, (0.1 μM and 0.5 μM), or 22b (0.1 μM, 0.5 μM and 1 μM) at the 48 h time point. Cells were harvested by centrifugation at 400× g using a temperature-controlled Sorvall centrifuge and then prepared for flow cytometric analysis. Cells were washed in Annexin V Binding Buffer 1X (binding buffer: 0.1 M 4-(2-hydroxyethyl)-1-piperazineethanesulfonic acid (HEPES), pH 7.4; 1.4 M NaCl; 25 mM CaCl2 diluted in dH2O, 0.5 mL), and incubated in the dark for 30 min on ice in Annexin V-containing binding buffer (1:100), 50 μL protected from light. Cells were then washed once in binding buffer and then re-suspended in a PI-containing binding buffer (1:1,000) (0.5 μg/mL, 500 μL) and immediately analyzed within 1 h to determine the populations produced. BD Accuri flow cytometer (BD Biosciences, 2350 Qume Dr, San Jose, CA, USA) and GraphPad Prism software were used for the analysis of the data (GraphPad Software, Inc., 2365 Northside Dr., Suite 560, San Diego, CA, USA).\n(§2) Figure 11 Compound 22b induced apoptosis in (A) MCF-7 breast cancer cells and (B) MDA-MB-231 breast cancer cells. MCF-7 breast cancer cells (A) and MDA-MB-23 breast cancer cells (B) were treated with 22b (0.1, 0.5, and 1.0 μM) or phenstatin (19c) (0.1 μM and 0.5 μM) or control vehicle (0.1% ethanol (v/v)). The data shown for the control vehicle and phenstatin are as we previously reported. The apoptotic cell content was determined by staining with Annexin V-FITC and PI. […]"}, "[3]": {"system": "MDA-MB-231 breast cancer cells", "assay": "Annexin V/PI apoptotic assay", "format": "cell-based, human", "description": "as §1, §2"}, "MCF-7 cells": {"system": "MCF-7 cells", "assay": "Cell cycle analysis (PI, flow cytometry)", "format": "cell-based, human", "settings": "1 μM", "description": "Figure 10 Compound (A) 22b, (B) phenstatin 19c induced apoptosis in a time-dependent manner in MCF-7 cells. Cells were treated with either vehicle control [0.1% ethanol (v/v)] or compound 22b or phenstatin 19c (1 μM) for 24, 48, and 72 h). The data shown for the control vehicle and phenstatin are as we previously reported. Cells were fixed and stained with PI, followed by analysis using flow cytometry. Cell cycle analysis was performed on histograms of gated counts per DNA area (FL2-A). The number of cells with <2 N (sub-G1), 2 N (G0G1), and 4 N (G2/M) DNA content was determined with CellQuest software, BD CellQuest Pro. Values are represented as the mean ± SEM for three separate experiments. Two-way ANOVA (Bonferroni post-test) was used to test for statistical significance (*, p < 0.05; **, p < 0.01; ***, p < 0.001).\nCells (MCF-7 and MDA-MD 231) were seeded at a density of 1 × 10^5 cells/well in 6-well plates (volume of 3 mL per well) and treated with selected compound 22b and phenstatin (19c) (1 μM), as previously reported. The time points used were 24, 48, or 72 h. Ethanol was used as the vehicle. At each time point, the media was removed and then the well was carefully rinsed with PBS and TrypLE™ Express enzyme (200 µL) was added to detach the adherent cells. The cells were collected by trypsinization and were then centrifuged at 800× g for 15 min. Cells were washed with ice-cold phosphate-buffered saline (PBS) ×2 and fixed in ice-cold 70% ethanol for 14 h at −20 °C. Fixed cells were centrifuged at 800× g for 15 min. The samples were then treated with 12.5 µL of DNase-free RNAse A (10 mg/mL) together with […] of PI (1 mg/mL) at 37 °C for 30 min, vortexed, and wrapped in tin foil. The DNA content of cells (10,000 cells/selected experimental group) was determined by flow cytometry at 488 nm with a FACSCalibur flow cytometer (BD Biosciences, San Jose, CA, USA) using the CellQuest Software (Becton-Dickinson, East Rutherford, NJ, USA). Each experiment was performed on three separate occasions."}},
  "data": [
    {"smiles": "COc1ccc(/C=C/C(c2cc(OC)c(OC)c(OC)c2)n2cncn2)cc1O", "note": "(stereo not shown) [Compound 22b, (E)-5-(3-(1H-1,2,4-Triazol-1-yl)-3-(3,4,5-trimethoxyphenyl)prop-1-en-1-yl)-2-methoxyphenol]", "values": [
      {"measurement": "reduction in the polymer mass vs vehicle", "setting": "[1]; 10 μM", "value": 1.5, "unit": "fold"},
      {"measurement": "reduction in the polymer mass vs vehicle", "setting": "[1]; 30 μM", "value": 5, "unit": "fold"},
      {"measurement": "cells undergoing apoptosis (early + late)", "setting": "[2]; 0.5 μM", "value": 21, "unit": "%"},
      {"measurement": "cells undergoing apoptosis (early + late)", "setting": "[2]; 1 μM", "value": 33, "unit": "%"},
      {"measurement": "viability at 0.1 µM", "setting": "[2]; Homo sapiens, MCF7, 0.1 μM, Figure 11A", "value": 82.8, "unit": "%"},
      {"measurement": "viability at 0.5 µM", "setting": "[2]; Homo sapiens, MCF7, 0.5 μM, Figure 11A", "value": 78.1, "unit": "%"},
      {"measurement": "viability at 1 µM", "setting": "[2]; Homo sapiens, MCF7, 1 μM, Figure 11A", "value": 60.6, "unit": "%"},
      {"measurement": "cells in apoptosis", "setting": "[3]; 0.1 μM", "value": 5.9, "unit": "%"},
      {"measurement": "cells in apoptosis", "setting": "[3]; 0.5 μM", "value": 6.5, "unit": "%"},
      {"measurement": "cells in apoptosis", "setting": "[3]; 1.0 μM", "value": 20.8, "unit": "%"},
      {"measurement": "viability at 0.1 µM", "setting": "[3]; Homo sapiens, 0.1 μM, Figure 11B", "value": 92.8, "unit": "%"},
      {"measurement": "viability at 0.5 µM", "setting": "[3]; Homo sapiens, 0.5 μM, Figure 11B", "value": 92.1, "unit": "%"},
      {"measurement": "viability at 1 µM", "setting": "[3]; Homo sapiens, 1 μM, Figure 11B", "value": 77.6, "unit": "%"},
      {"measurement": "cells in G2/M phase", "setting": "MCF-7 cells; 24 h", "value": 35, "unit": "%"},
      {"measurement": "cells in apoptosis (sub-G1)", "setting": "MCF-7 cells; 24 h", "value": 14, "unit": "%"},
      {"measurement": "cells in G2/M phase", "setting": "MCF-7 cells; 48 h", "value": 26, "unit": "%"},
      {"measurement": "cells in apoptosis (sub-G1)", "setting": "MCF-7 cells; 48 h", "value": 23, "unit": "%"},
      {"measurement": "cells in G2/M phase", "setting": "MCF-7 cells; 72 h", "value": 23, "unit": "%"},
      {"measurement": "cells in apoptosis (sub-G1)", "setting": "MCF-7 cells; 72 h", "value": 31, "unit": "%"}
    ]}
  ]
}
